Assay [1] has as its target human TLR7 (Homo sapiens (Human), UniProt Q9NYK1). The assay is described as follows: TLR7 inhibition reporter assay (HEK-Blue SEAP). The following applies: HEK-Blue cells overexpressing human TLR7, gardiquimod 7.5 μM stimulation, SEAP reporter. Format: cell-based.
Assay [2] has as its target human TLR8 (Homo sapiens (Human), UniProt Q9NR97). Put plainly: TLR8 inhibition reporter assay (HEK-Blue SEAP).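 Also: SEAP driven by IFN-β minimal promoter carrying NF-κB and AP-1 sites, compounds dosed 0.05 nM to 50 µM for 22 h, inhibition scaled between agonist-plus-DMSO and reference-inhibitor wells.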 Particulars: read-out: TLR8 IC50; HEK-Blue cells overexpressing human TLR8, R848 15.9 μM stimulation, SEAP reporter.
Assay [3] deals with human TLR9 (Homo sapiens (Human), UniProt Q9NR96). Put plainly: TLR9 inhibition reporter assay (HEK-Blue SEAP).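 Also: SEAP driven by an IFN-β minimal promoter with NF-κB and AP-1 sites, read after 22 h, compounds dosed 0.05 nM–50 µM, inhibition scaled between agonist plus DMSO and reference-inhibitor wells.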 The following applies: read-out: TLR9 IC50; HEK-Blue cells overexpressing human TLR9, ODN2006 5 nM stimulation, SEAP reporter.
Sequence of human TLR9 (Q9NR96 26-1032): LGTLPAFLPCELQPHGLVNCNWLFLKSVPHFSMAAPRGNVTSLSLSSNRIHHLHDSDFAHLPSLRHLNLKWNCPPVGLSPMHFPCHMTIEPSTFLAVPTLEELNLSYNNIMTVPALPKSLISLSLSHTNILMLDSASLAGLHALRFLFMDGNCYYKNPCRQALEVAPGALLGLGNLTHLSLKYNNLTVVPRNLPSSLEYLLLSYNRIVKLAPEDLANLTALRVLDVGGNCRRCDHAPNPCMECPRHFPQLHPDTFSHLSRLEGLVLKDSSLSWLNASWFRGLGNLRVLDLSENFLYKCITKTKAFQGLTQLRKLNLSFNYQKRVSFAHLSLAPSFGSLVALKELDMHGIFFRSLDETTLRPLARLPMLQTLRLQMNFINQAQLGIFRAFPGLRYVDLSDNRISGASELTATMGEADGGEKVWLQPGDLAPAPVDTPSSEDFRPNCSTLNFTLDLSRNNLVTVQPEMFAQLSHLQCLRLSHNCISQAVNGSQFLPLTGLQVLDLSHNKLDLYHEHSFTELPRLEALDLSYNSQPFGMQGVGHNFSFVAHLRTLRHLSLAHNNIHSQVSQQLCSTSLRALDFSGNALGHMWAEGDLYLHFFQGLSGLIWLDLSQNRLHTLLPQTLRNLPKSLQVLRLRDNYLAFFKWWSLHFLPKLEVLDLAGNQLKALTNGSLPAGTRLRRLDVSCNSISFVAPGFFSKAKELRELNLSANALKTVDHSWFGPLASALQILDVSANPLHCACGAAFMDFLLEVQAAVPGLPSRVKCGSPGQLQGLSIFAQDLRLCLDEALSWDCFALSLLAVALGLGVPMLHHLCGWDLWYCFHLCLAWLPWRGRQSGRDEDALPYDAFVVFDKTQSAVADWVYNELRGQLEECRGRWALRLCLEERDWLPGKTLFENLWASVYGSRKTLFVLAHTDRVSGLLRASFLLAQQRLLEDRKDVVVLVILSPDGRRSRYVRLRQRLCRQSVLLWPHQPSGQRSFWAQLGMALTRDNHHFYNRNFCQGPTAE

Sequence of human TLR7 (Q9NYK1 27-1049): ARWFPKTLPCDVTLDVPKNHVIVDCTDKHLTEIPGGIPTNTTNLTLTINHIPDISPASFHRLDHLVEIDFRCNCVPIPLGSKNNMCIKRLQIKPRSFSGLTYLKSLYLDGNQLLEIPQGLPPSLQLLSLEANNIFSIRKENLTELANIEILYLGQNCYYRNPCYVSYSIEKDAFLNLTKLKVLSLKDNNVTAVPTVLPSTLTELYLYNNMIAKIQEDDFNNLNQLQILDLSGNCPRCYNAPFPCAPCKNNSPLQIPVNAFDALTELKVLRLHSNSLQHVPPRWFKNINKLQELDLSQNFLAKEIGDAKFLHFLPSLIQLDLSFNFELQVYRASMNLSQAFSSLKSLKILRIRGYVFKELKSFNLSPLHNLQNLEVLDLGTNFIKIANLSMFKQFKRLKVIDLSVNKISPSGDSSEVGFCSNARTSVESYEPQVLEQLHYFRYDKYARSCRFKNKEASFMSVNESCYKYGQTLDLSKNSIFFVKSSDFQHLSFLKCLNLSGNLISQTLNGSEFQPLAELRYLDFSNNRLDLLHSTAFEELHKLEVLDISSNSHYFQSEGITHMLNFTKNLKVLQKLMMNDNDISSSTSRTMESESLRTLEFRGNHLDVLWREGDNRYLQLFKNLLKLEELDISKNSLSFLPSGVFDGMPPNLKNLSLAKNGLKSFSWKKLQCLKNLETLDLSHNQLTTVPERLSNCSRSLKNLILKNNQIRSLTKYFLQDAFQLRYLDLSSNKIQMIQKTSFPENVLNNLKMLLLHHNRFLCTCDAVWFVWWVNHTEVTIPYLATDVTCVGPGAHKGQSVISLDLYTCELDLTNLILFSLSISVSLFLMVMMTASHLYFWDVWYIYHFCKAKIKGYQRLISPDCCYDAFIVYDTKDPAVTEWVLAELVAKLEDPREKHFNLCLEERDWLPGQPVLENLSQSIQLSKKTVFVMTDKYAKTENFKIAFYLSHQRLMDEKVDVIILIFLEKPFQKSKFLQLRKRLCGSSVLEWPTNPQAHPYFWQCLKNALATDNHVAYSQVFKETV
Sequence of human TLR8 (Q9NR97 27-1041): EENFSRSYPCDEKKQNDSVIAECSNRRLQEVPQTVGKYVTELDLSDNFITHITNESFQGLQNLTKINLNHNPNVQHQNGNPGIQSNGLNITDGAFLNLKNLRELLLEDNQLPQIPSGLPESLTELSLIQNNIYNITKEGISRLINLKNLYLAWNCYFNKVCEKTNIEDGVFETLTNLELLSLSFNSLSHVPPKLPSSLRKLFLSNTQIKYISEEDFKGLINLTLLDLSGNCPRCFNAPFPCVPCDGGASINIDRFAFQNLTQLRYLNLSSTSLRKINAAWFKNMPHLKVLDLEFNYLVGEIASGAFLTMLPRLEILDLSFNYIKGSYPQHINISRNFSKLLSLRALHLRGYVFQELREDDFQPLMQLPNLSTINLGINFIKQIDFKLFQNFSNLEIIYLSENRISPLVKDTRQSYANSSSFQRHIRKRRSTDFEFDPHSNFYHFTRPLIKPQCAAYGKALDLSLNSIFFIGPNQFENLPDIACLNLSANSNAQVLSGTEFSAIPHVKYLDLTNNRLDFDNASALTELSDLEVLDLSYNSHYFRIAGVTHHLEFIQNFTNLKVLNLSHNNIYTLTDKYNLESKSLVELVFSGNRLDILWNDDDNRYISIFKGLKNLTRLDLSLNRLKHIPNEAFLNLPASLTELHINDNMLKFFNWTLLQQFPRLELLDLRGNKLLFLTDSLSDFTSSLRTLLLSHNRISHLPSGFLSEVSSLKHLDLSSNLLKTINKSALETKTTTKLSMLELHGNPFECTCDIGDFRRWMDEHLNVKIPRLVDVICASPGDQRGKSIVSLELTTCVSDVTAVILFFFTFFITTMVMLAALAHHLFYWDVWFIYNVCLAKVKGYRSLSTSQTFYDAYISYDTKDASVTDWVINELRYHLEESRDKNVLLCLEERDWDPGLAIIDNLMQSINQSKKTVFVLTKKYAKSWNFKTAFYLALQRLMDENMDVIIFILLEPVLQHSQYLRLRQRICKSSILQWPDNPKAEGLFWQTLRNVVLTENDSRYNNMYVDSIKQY

Take `COc1cc(-c2[nH]c3cc(C)c(C4CCC(N5CCC5)CC4)nc3c2C(C)C)cn2ncnc12` (stereo not drawn) [Example 325]: the IC50 in assay [1] is 1.5 nM; in assay [2], 38 nM; in assay [3] it was 3110 nM.
In the case of `COc1cc(-c2[nH]c3cc(C)c(C4CCC(N5CCC5)CC4)nc3c2C(C)C)cn2ncnc12` (stereo not drawn) [Example 326], the IC50 was found to be 0.13 nM in assay [1], 3.7 nM in assay [2] and 988 nM in assay [3].
As for `COCCNC1CCC(c2nc3c(C(C)C)c(-c4cc(OC)c5ncnn5c4)[nH]c3cc2C)CC1` (stereo not drawn) [Example 327], the IC50 was greater than 3120 nM in assay [1], greater than 3120 nM in assay [2] and greater than 50000 nM in assay [3].
As for `COc1cc(-c2[nH]c3cc(C)c(C4CCC(NC5CCOC5)CC4)nc3c2C(C)C)cn2ncnc12` (stereo not drawn) [Example 328], the values for the IC50 in assay [1], in assay [2] and in assay [3] were 0.08 nM, 1.1 nM and 576 nM, respectively.
Take `COc1cc(-c2[nH]c3cc(C)c(C4CCC(NC5CCOC5)CC4)nc3c2C(C)C)cn2ncnc12` (stereo not drawn) [Example 329]: the half-maximal inhibitory concentration (IC50) was 1.6 nM in assay [1], 23 nM in assay [2] and 2070 nM in assay [3].
Consider `COc1cc(-c2[nH]c3cc(C)c(C4CCC(N(C)C5COC5)CC4)nc3c2C(C)C)cn2ncnc12` (stereo not drawn) [Example 330], for which the IC50 in assay [1] amounted to 0.14 nM; in assay [2], 4.8 nM; in assay [3] it was 2970 nM.
Consider `COc1cc(-c2[nH]c3cc(C)c(C4CCC(N(C)C5COC5)CC4)nc3c2C(C)C)cn2ncnc12` (stereo not drawn) [Example 331], for which the IC50 stood at 1.7 nM in assay [1], 34 nM in assay [2] and 1910 nM in assay [3].
With `COc1cc(-c2[nH]c3cc(C)c(C4CCC(N(C)Cc5ncn(C)n5)CC4)nc3c2C(C)C)cn2ncnc12` (stereo not drawn) [Example 332], the IC50 was determined as 1.3 nM in assay [1], 88 nM in assay [2] and 2660 nM in assay [3].
In the case of `COc1cc(-c2[nH]c3cc(C)c(C4CCC(N(C)Cc5ncn(C)n5)CC4)nc3c2C(C)C)cn2ncnc12` (stereo not drawn) [Example 333], the IC50 came to 0.6 nM in assay [1], 12 nM in assay [2] and 1460 nM in assay [3].
As to `COc1cc(-c2[nH]c3cc(C)c(C4CCC(N(C)CC(C)(C)C)CC4)nc3c2C(C)C)cn2ncnc12` (stereo not drawn) [Example 334], the IC50 in assay [1] worked out at 4.6 nM; in assay [2], 127 nM; in assay [3], 2400 nM.
Consider `COc1cc(-c2[nH]c3cc(C)c(C4CCC(N(C)CC(C)(C)C)CC4)nc3c2C(C)C)cn2ncnc12` (stereo not drawn) [Example 336], for which the IC50 came out at 2.8 nM in assay [1], 48 nM in assay [2] and 3440 nM in assay [3].
On to `COc1cc(-c2[nH]c3cc(C)c(C4CCC(N5CC(F)(F)C5)CC4)nc3c2C(C)C)cn2ncnc12` (stereo not drawn) [Example 337], for which the results for the IC50 in assay [1], in assay [2] and in assay [3] were 21 nM, 350 nM and greater than 50000 nM, respectively.
In the same order, the values of `COc1cc(-c2[nH]c3cc(C)c(C4CCC(N5CC(F)(F)C5)CC4)nc3c2C(C)C)cn2ncnc12` (stereo not drawn) [Example 338] are 81 nM, 1170 nM and greater than 50000 nM.
On to `COc1cc(-c2[nH]c3cc(C)c(C4CCC(N(C)CCC#N)CC4)nc3c2C(C)C)cn2ncnc12` (stereo not drawn) [Example 339], for which the IC50 in assay [1] turned out to be 0.2 nM; in assay [2], 7.1 nM; in assay [3] it was 5890 nM.
On to `COc1cc(-c2[nH]c3cc(C)c(C4CCC(N(C)CCC#N)CC4)nc3c2C(C)C)cn2ncnc12` (stereo not drawn) [Example 340], for which the values for the IC50 in assay [1], in assay [2] and in assay [3] were 1.4 nM, 51 nM and 1870 nM, respectively.
For `COc1cc(-c2[nH]c3cc(F)c(C4CCC(NCC5(C)COC5)CC4)nc3c2C(C)C)cn2ncnc12` (stereo not drawn) [Example 341] the same measures were 0.12 nM, 0.32 nM and 2640 nM.
For `COc1cc(-c2[nH]c3cc(F)c(C4CCC(NCC5(C)COC5)CC4)nc3c2C(C)C)cn2ncnc12` (stereo not drawn) [Example 342], the IC50 amounted to 0.98 nM in assay [1], 3.9 nM in assay [2] and 1910 nM in assay [3].
For the molecule `COc1cc(-c2[nH]c3cc(F)c(C4CCC(N5CC6(COC6)C5)CC4)nc3c2C(C)C)cn2ncnc12` (stereo not drawn) [Example 343], the IC50 in assay [1] was determined as 0.19 nM; in assay [2], 0.54 nM; in assay [3], 1250 nM.
For `COc1cc(-c2[nH]c3cc(F)c(C4CCC(N5CC6(COC6)C5)CC4)nc3c2C(C)C)cn2ncnc12` (stereo not drawn) [Example 344] the same measures were 0.72 nM, 4.8 nM and 2790 nM.
As for `COc1cc(-c2[nH]c3cc(F)c(C4CCC(NC5COC5)CC4)nc3c2C(C)C)cn2ncnc12` (stereo not drawn) [Example 345], the half-inhibitory concentration (IC50) in assay [1] was 0.21 nM; in assay [2], 0.68 nM; in assay [3], 1680 nM.
Regarding `COc1cc(-c2[nH]c3cc(F)c(C4CCC(NC5COC5)CC4)nc3c2C(C)C)cn2ncnc12` (stereo not drawn) [Example 346], the IC50 in assay [1] is 0.32 nM; in assay [2], 6 nM; in assay [3], 6290 nM.
Regarding `CNC1CCC(c2nc3c(C(C)C)c(-c4cc(OC)c5ncnn5c4)[nH]c3cc2F)CC1` (stereo not drawn) [Example 347], the IC50 in assay [1] came to 0.27 nM; in assay [2], 1 nM; in assay [3], 2470 nM.
As to `CNC1CCC(c2nc3c(C(C)C)c(-c4cc(OC)c5ncnn5c4)[nH]c3cc2F)CC1` (stereo not drawn) [Example 348], the half-maximal inhibitory concentration (IC50) in assay [1] was found to be 0.82 nM; in assay [2] it was 8.3 nM; in assay [3] it was 6960 nM.
In the same order, the values of `Cc1c(-c2[nH]c3ccc(C4CCC(=O)CC4)nc3c2C(C)C)cn2ncnc2c1C` [Example 349] are 7.7 nM, 63 nM and greater than 50000 nM.
As for `Cc1c(-c2[nH]c3ccc(C4CCC(NC5COC5)CC4)nc3c2C(C)C)cn2ncnc2c1C` (stereo not drawn) [Example 350], the IC50 in assay [1] was determined as 0.72 nM; in assay [2], 1 nM; in assay [3] it was 1160 nM.
Consider `Cc1c(-c2[nH]c3ccc(C4CCC(NC5COC5)CC4)nc3c2C(C)C)cn2ncnc2c1C` (stereo not drawn) [Example 351], for which the IC50 in assay [1] came out at 2.3 nM; in assay [2], 4.3 nM; in assay [3] it was 1690 nM.
Consider `Cc1c(-c2[nH]c3ccc(C4CCC(NCC(=O)N(C)C)CC4)nc3c2C(C)C)cn2ncnc2c1C` (stereo not drawn) [Example 352], for which the 50% inhibitory concentration (IC50) is 5.4 nM in assay [1], 9.2 nM in assay [2] and 2320 nM in assay [3].
For `Cc1c(-c2[nH]c3ccc(C4CCC(N(C)C)CC4)nc3c2C(C)C)cn2ncnc2c1C` (stereo not drawn) [Example 353] the same measures were 0.64 nM, 0.96 nM and 940 nM.
Consider `Cc1c(-c2[nH]c3ccc(C4CCC(NCC(=O)N(C)C)CC4)nc3c2C(C)C)cn2ncnc2c1C` (stereo not drawn) [Example 354], for which the values for the IC50 in assay [1], in assay [2] and in assay [3] were 1 nM, 2.3 nM and 790 nM, respectively.
On to `Cc1c(-c2[nH]c3ccc(C4CCC(N(C)C)CC4)nc3c2C(C)C)cn2ncnc2c1C` (stereo not drawn) [Example 355], for which the IC50 in assay [1] was determined as 2.6 nM; in assay [2] it was 10 nM; in assay [3], 4500 nM.
In the case of `Cc1c(-c2[nH]c3ccc(C4CCC(N(C)C)CC4)nc3c2C(C)C)cn2ncnc2c1C` (stereo not drawn) [Example 356], the IC50 amounted to 2.8 nM in assay [1], 5.1 nM in assay [2] and 2860 nM in assay [3].
In the same order, the values of `Cc1cnc(CNC2CCC(c3ccc4[nH]c(-c5cn6ncnc6c(C)c5C)c(C(C)C)c4n3)CC2)cn1` (stereo not drawn) [Example 357] are 3.9 nM, 4.4 nM and 1050 nM.
Take `Cc1c(-c2[nH]c3ccc(C4CCC(NC(C)C)CC4)nc3c2C(C)C)cn2ncnc2c1C` (stereo not drawn) [Example 358]: the values for the IC50 in assay [1], in assay [2] and in assay [3] were 0.95 nM, 2.8 nM and 1320 nM, respectively.
For the molecule `Cc1cnc(CNC2CCC(c3ccc4[nH]c(-c5cn6ncnc6c(C)c5C)c(C(C)C)c4n3)CC2)cn1` (stereo not drawn) [Example 359], the IC50 came out at 9.1 nM in assay [1], 29 nM in assay [2] and 4870 nM in assay [3].
`Cc1c(-c2[nH]c3ccc(C4CCC(N5CCCC5)CC4)nc3c2C(C)C)cn2ncnc2c1C` (stereo not drawn) [Example 360]: the results for the IC50 in assay [1], in assay [2] and in assay [3] were 1.3 nM, 3.4 nM and 1410 nM, respectively.
As to `Cc1c(-c2[nH]c3ccc(C4CCC(N(C)CCC#N)CC4)nc3c2C(C)C)cn2ncnc2c1C` (stereo not drawn) [Example 361], the values for the IC50 in assay [1], in assay [2] and in assay [3] were 0.79 nM, 1 nM and 1250 nM, respectively.
Consider `Cc1c(-c2[nH]c3ccc(C4CCC(N5CCOCC5)CC4)nc3c2C(C)C)cn2ncnc2c1C` (stereo not drawn) [Example 362], for which the figures for the 50% inhibitory concentration (IC50) in assay [1], in assay [2] and in assay [3] were 1.6 nM, 5.1 nM and 1630 nM, respectively.
For the molecule `Cc1c(-c2[nH]c3ccc(C4CCC(NC(C)C)CC4)nc3c2C(C)C)cn2ncnc2c1C` (stereo not drawn) [Example 363], the IC50 in assay [1] was determined as 3.3 nM; in assay [2], 6.6 nM; in assay [3], 1480 nM.
Take `Cc1c(-c2[nH]c3ccc(C4CCC(N(C)C(C)C)CC4)nc3c2C(C)C)cn2ncnc2c1C` (stereo not drawn) [Example 364]: the figures for the IC50 in assay [1], in assay [2] and in assay [3] were 1.5 nM, 9.6 nM and 2520 nM, respectively.
For `Cc1c(-c2[nH]c3ccc(C4CCC(N(C)CCO)CC4)nc3c2C(C)C)cn2ncnc2c1C` (stereo not drawn) [Example 365] the same measures were 4.2 nM, 7.9 nM and 3200 nM.
For `Cc1c(-c2[nH]c3ccc(C4CCC(N(C)CCC#N)CC4)nc3c2C(C)C)cn2ncnc2c1C` (stereo not drawn) [Example 366], the IC50 in assay [1] was 5.3 nM; in assay [2], 15 nM; in assay [3], 4690 nM.
Turning to `Cc1c(-c2[nH]c3ccc(C4CCC(N(C)CC(=O)N(C)C)CC4)nc3c2C(C)C)cn2ncnc2c1C` (stereo not drawn) [Example 368, 2-((4-(2-(7,8-dimethyl-[1,2,4]triazolo[1,5-a]pyridin-6-yl)-3-isopropyl-1H-pyrrolo[3,2-b]pyridin-5-yl)cyclohexyl)(methyl)amino)-N,N-dimethylacetamide], the IC50 in assay [1] was 1.5 nM; in assay [2] it was 2.5 nM; in assay [3] it was 1610 nM.

Broadly, the IC50 is the midpoint of a concentration-inhibition curve.

The record behind these values is patent publication US10544143B2, “4-azaindole compounds” (BRISTOL-MYERS SQUIBB COMPANY, priority 2017, dated 2020).
